Measurements published in US7745465B2, “Method of enhancing cellular production of molecular chaperone, hydroxylamine derivatives useful for enhancing the chaperone production and the preparation thereof” (CytRx Corporation, priority 1995, dated 2010).

What was measured:
[1] = test system: Hsp90; test: Western blot of hsp90 in heat shocked H9c2 cells; assay type: cell-based, rat
Protocol: Experiments set forth in this section were conducted to determine whether N-[2-hydroxy-3-(1-piperidinyl)propoxy]-3-pyridinecarboximidoyl chloride maleate acts to increase the expression of molecular chaperon by a cell. The accumulation of different heat shock proteins subsequent to a period of exposure to heat shock alone, and to heat shock in combination with N-[2-hydroxy-3-(1-piperidinyl)propoxy]-3-pyridinecarboximidoyl chloride maleate administration, was examined by adding 10^−5 M of N-[2-hydroxy-3-(1-piperidinyl)propoxy]-3-pyridinecarboximidoyl chloride maleate before, during, or immediately after hyperthermic treatment of heart myogenic cells (H9c2 cells).
The embryonic rat heart-derived cell line H9c2 was obtained from European Collection of Animal cell Cultures (ECACC) (88092904). The cells were maintained at 37° C. in Dulbecco's modified Eagle's medium (DMEM) supplemented with 10% fetal calf serum (GIBCO) in JOUAN C02 thermostat (5% CO2).
Heat shock was performed at 43° C. in CO2 thermostat for the given time intervals (20, 40, 60, 90 and 120 min.). Cells were then taken back to 37° C. for 6 hours and proteins were extracted for SDS-PAGE. […]
Protein concentration was determined from 5:1 samples by the Bradford assay (M. M. Braford, Anal. Biochem., 72: 248-254 (1976)) in three parallel. […]

[2] = test system: Streptozotocin-induced diabetic (STZ) rats; test: Wound healing of thermal wounds in STZ-diabetic rats; assay type: in vivo, rat; settings: 4% containing cream, topical
Protocol: (§1) (ii) Streptozotocin-induced diabetic (STZ) rats with partial-to full thickness thermal wounds created on bilateral thoracic depilated skin by electroheating probe (3 mm of diameter; 60° C.; for 30, 60 and 90 sec.), treated by topical application of 1%, 2% or 4% N-[2-hydroxy-3-(1-piperidinyl)propoxy]-3-piridinecarboximidoyl chloride maleate containing cream or vehicle were used to determine the wound healing in form of self-control, side to side comparison. Wound closure was recorded photographically and using the digital epiluminescence microscopic technique. Wound areas were measured by planimetry 48 h and 21 days after heat injury. Level of hsp72 of skin biopsy samples was determined using Western blot analysis.

[3] = test system: Hsp72; test: hsp72 level of skin biopsy samples of STZ-diabetic rats (Western blot); assay type: in vivo, rat; settings: 4% containing cream, topical
Protocol: as §1

[4] = test system: hsp72; test: hsp72 in skin of UVB exposed human skin grafted SCID mice (immunofluorescence, Western blot); assay type: in vivo; settings: 5.0 mg/kg i.p.
Protocol: Human skin tissues were grafted onto immunodeficiency (SCID) mice. The experimental protocol involved a treatment of one group of the mice with N-[2-hydroxy-3-(1-piperidinyl)propoxy]-3-piridinecarboxymidoyl chloride maleate (5.0 mg/kg i.p.) and the other with the solvent NaCl solution (300 μl) for 7 days. On day 8, both groups of mice were exposed to UVB light (100 mJ/cm^2) 24 hours subsequent to the exposure, skin biopsies were taken for histological (sections stained with hematoxylin and eosin), and immunohistological examinations (indirect immunoflourescence technique with monoclonal antibody, mAB).
All steps were carried out at room temperature. Skin (about 9-35 mg) was cut into tiny pieces and homogenized with frosted-glass pestle in Eppendorf tubes for 2 min. in ([…]) of 2 times concentrated Laemmli buffer (65 mM Tris-HCI, pH 6.8: 5% β-mercaptoethanol; 2% SDS; 10% glycerol; 0.1% bromophenolblue; all of these materials were Sigma products). Then samples were solubilized for another 60 min. with continuous shaking. The homogenates were centrifuged at 10.000 rpm for 10 min. prior loading to the gel.
Electrophoresis were carried out on 8% polyacrylamide gel with 10 μl of sample per lane at constant voltage (50 V) for overnight. […]

O=C(O)/C=C\C(=O)O.OC(CON=C(Cl)c1cccnc1)CN1CCCCC1 (stereo not drawn) [N-[2-hydroxy-3-(1-piperidinyl)-propoxy]3-pyridinecarboximidoyl chloride maleate]
level of Hsp90 increased ([1]; added before the heat stress, 20 min. heat treatment): about fivefold | effect on HSP90 level ([1]; added following 43° C. 60 min. treatment): as effective (if not more) as if added before high temperature stress | wound closure compared to vehicle control [2]: accelerated wound closure | hsp72 level in skin biopsy samples compared to vehicle control [3]: elevated the hsp72 level | amount of hsp72 by Western blotting ([4]; UVB 100 mJ/cm^2, biopsy after 24 h): increased amount of hsp72 | hsp72 staining by indirect immunofluorescence ([4]; UVB 100 mJ/cm^2, biopsy after 24 hours): intense, linear staining along the basement membrane zone
